Test results published in patent US20250352609A1, “Methods For Treating Alzheimer's Disease or Dementia Using A Calcilytic And A Calcimimetic” (The United States Government As Represented By The …, priority 2024, published 2025).

Tests used:
Tau phosphorylation = assay: Aβ1-42-stimulated PTH secretion in vitro with Tau phosphorylation inhibitor; type: cell-based; conditions: inhibition of Tau phosphorylation
From the text: In support of this finding, inhibition of Tau phosphorylation by a staurosporine analogue (K252a) blocked the ability of Aβ1-42 to stimulate PTH secretion in vitro, and the increased tonic PTH hypersecretion seen in mice with PTC-targeted Vdr gene KO (^PTCVdr^Dflox/Dflox), mimicking vitamin D deficiency, was reversed by a concurrent ablation of App (^PTCVdr^Dflox/Dflox; App^Dflox/Dflox) or the TAU-encoding Mapt (^PTCVdr^Dflox/Dflox; Mapt−/−) gene.

18 MOA male C57/B6 mice = assay: Y-maze test, aging-induced cognitive declines, Etelcalcetide; type: in vivo; conditions: 18 MOA vs 5 MOA male C57/B6 mice, 8 weeks daily (5 days/week) injections, 500 μg/kg
Protocol: Spont Alt indices of Y-maze test in 5 and 18 MOA male C57/B6 mice after 8 weeks of daily (5 days/week) injections of vehicle, 500 μg/kg Etelcalcetide (Etel) and/or 12 μmole/kg NPS-2143 (2143). Mean±SE, p values by one-way ANOVA, n=6-12 mice/group.
(§1) Based on the outcomes of the above genetically manipulated mice, it was tested whether pharmacological manipulations of serum PTH levels with blood-brain barrier (BBB)-impermeable calcimimetics (e.g., etelcalcetide) that activate CaSR homodimers in PTCs to suppress PTH secretion can prevent the cognitive declines in the aging and APP^NL-G-F/NL-G-F mice.

APP^NL-G-F mice = assay: Y-maze test, cognitive declines in EOAD mice, Etelcalcetide; type: in vivo; conditions: APP^NL-G-F mice at 10 MOA, daily (5 days/week) injections 500 μg/kg beginning at 6 MOA
Protocol: Spont Alt indices of Y-maze test in 10 MOA mice carrying humanized Ab sequence without (bAb-KI) or with (APP^NLGF) 4 mutations identified from EOAD patients after daily (5 days/week) injections of vehicle, 500 μg/kg Etelcalcetide (Etel) and/or 12 μmole/kg NPS-2143 (2143) beginning at 6 MOA. Mean±SE, p values by one-way ANOVA, n=19-37 mixed male and female mice/group.
as §1

serum PTH (sPTH) = assay: Serum PTH in aging-associated HPT mice; type: in vivo; conditions: aged male C57/B6 mice; aducanumab 40 mg/kg/week by twice weekly injections for 5 weeks; Etelcalcetide 0.3 mg/kg once daily
murine PTGs = assay: Ex vivo tonic PTH secretion from cultured murine PTGs; type: cell-based
Protocol: Ex vivo assessments of the impact of different concentrations (0.3 to 1000 nM) Aβ1-42 on PTH secretion from intact PTGs cultured from the 3-month-old mice with homozygous parathyroid-specific App gene KO (square); homozygous parathyroid-specific App and Casr double gene KO (up triangle); homozygous parathyroid-specific App and Gabbr1 double gene KO (down triangle); or homozygous parathyroid-specific App, Casr, and Gabbr1 triple gene KO (diamond). Mean±s.e.m. of n mice as indicated in the plots.
(§2) This stimulatory effect was absent in murine PTGs lacking either CaSR or GABAB1R.

human PTGs = assay: Tonic PTH secretion from cultured human PTGs; type: cell-based; conditions: exogenous Aβ1-42 0.3 to 1000 nM, concentration-dependent, vs control
From the text: as §2

[1] = system: iPSC-derived neurons co-expressing CASR and GABAB1R; assay: cAMP production in iPSC-derived neurons challenged by Aβ42; type: cell-based; conditions: iPSC-derived neurons perfused with Aβ42
From the text: Averaged time courses of CAMP in normal iPSC-derived neurons natively expressing CaSR and GABAB1R and challenged by Ab1-42. Cells were continuously perfused with buffer without or with Aβ42 (horizontal bar). Data represent the mean value s.e.m. of n=20 cells and N=3 experiments.
Given that HPT can cause chronic inflammation (Cheng, S. P., et al. Mediators Inflamm 2014, 709024 (2014); çrakolu, M. F. et al. ENT Updates 11, 115-119 (2021); and Almqvist, E. G., et al. Scandinavian journal of clinical and laboratory investigation 71, 139-144 (2011)) and that CaSR expression increases in inflammatory responses in pathological conditions (Jager, E. et al. Nat Commun 11, 4243 (2020); and Iamartino, L. & Brandi, M. L. Front Physiol 13, 1059369 (2022)), including in AD, through interleukin (IL)-1β (IL1β) and IL-6-induced NFkb cis-acting response of CASR gene (Canaff, L. & Hendy, G. N. J Biol Chem 280, 14177-14188 (2005); and Hendy, G. N. & Canaff, Semin Cell Dev Biol 49, 37-43 (2016)), HPT-induced inflammation could be a leading cause for CaSR upregulation as well as for Aβ buildup in AD (Kinney, J. W. et al. Alzheimers Dement (N Y) 4, 575-590 (2018); Ilievski, V. et al. PloS one 13, e0204941 (2018); and Yamamoto, M. et al. Am J Pathol 170, 680-692 (2007)).

## COC(=O)[C@@]1(O)C[C@H]2O[C@]1(C)n1c3ccccc3c3c4c(c5c6ccccc6n2c5c31)C(=O)NC4 [K252a]
Tau phosphorylation
  ability of Aβ1-42 to stimulate PTH secretion: blocked

## CC(=O)N[C@H](CSSC[C@H](N)C(=O)O)C(=O)N[C@H](C)C(=O)N[C@H](CCCNC(=N)N)C(=O)N[C@H](CCCNC(=N)N)C(=O)N[C@H](CCCNC(=N)N)C(=O)N[C@H](C)C(=O)N[C@H](CCCNC(=N)N)C(N)=O [Etelcalcetide]
18 MOA male C57/B6 mice
  cognitive declines, Y-maze Spont Alt index: partially prevented
APP^NL-G-F mice
  early cognitive declines, Y-maze Spont Alt index: partially prevented
Serum PTH (sPTH)
  reduction of sPTH: > 80%

## Aβ1-42: b-amyloid (Ab1-42), derivative of amyloid precursor protein, added exogenously to PTG cultures
Murine PTGs; exogenous Aβ1-42 0.3 to 1000 nM, concentration-dependent, vs control
  stimulation of tonic PTH secretion: up to 1.6 fold
Murine PTGs; murine PTGs lacking either CaSR or GABAB1R
  stimulatory effect on PTH secretion in PTGs lacking either CaSR or GABAB1R: absent
Murine PTGs; murine and human PTGs, Aβ1-42 0.3 to 1000 nM
  Ca^2+-set point: without shifting
Human PTGs
  stimulation of tonic PTH secretion: ≤ 1.9 fold
[1]
  cAMP production: stimulating cAMP production
